Results reported in ChEMBL document CHEMBL1201862, “PubChem BioAssay data set” (2004).
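All cell lines were grown in 96-well plates and treated with compound for 48 hours. At the GI50, growth is halved.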 Active and inactive are the calls of the source. No stated cut-off is given here; in the data, active = GI50 up to about 1.1 µM and inactive = higher.

What was measured:
Assay in all cases: growth of human tumour cells (NCI), 48 h
KM-20L2 = tested on: KM-20L2
EKVX = tested on: EKVX
HL-60 = tested on: HL-60
SK-MEL-5 = tested on: SK-MEL-5
SNB-78 = tested on: SNB-78
HCT-15 = tested on: HCT-15
OVCAR-8 = tested on: OVCAR-8
SF-539 = tested on: SF-539
A549 = tested on: A549
COLO 205 = tested on: COLO 205
IGROV-1 = tested on: IGROV-1
TK-10 = tested on: TK-10
HCC 2998 = tested on: HCC 2998
DMS-114 = tested on: DMS-114
K562 = tested on: K562
MOLT-4 = tested on: MOLT-4
LXFL 529 = tested on: LXFL 529
UO-31 = tested on: UO-31
UACC-257 = tested on: UACC-257
UACC-62 = tested on: UACC-62
DMS-273 = tested on: DMS-273
SF-295 = tested on: SF-295
SF-268 = tested on: SF-268
HT-29 = tested on: HT-29
SK-MEL-2 = tested on: SK-MEL-2
NCI-H460 = tested on: NCI-H460
HCT-116 = tested on: HCT-116
HOP-18 = tested on: HOP-18
DLD-1 = tested on: DLD-1
SN12C = tested on: SN12C
OVCAR-4 = tested on: OVCAR-4
SW-620 = tested on: SW-620
KM12 = tested on: KM12
RPMI-8226 = tested on: RPMI-8226
CAKI-1 = tested on: CAKI-1
786-0 = tested on: 786-0
OVCAR-5 = tested on: OVCAR-5
M14 = tested on: M14
M19-MEL = tested on: M19-MEL
NCI-H23 = tested on: NCI-H23
OVCAR-3 = tested on: OVCAR-3
LOX IMVI = tested on: LOX IMVI
HOP-62 = tested on: HOP-62
CCRF-CEM = tested on: CCRF-CEM
XF498 = tested on: XF498
Malme-3M = tested on: Malme-3M
RXF 393 = tested on: RXF 393
A498 = tested on: A498
SK-OV-3 = tested on: SK-OV-3
SNB-75 = tested on: SNB-75
SNB-19 = tested on: SNB-19
HOP-92 = tested on: HOP-92
ACHN = tested on: ACHN
U-251 = tested on: U-251
NCI-H522 = tested on: NCI-H522
SK-MEL-28 = tested on: SK-MEL-28
NCI-H226 = tested on: NCI-H226
MDA-MB-435 = tested on: MDA-MB-435
MDA-N = tested on: MDA-N
PC-3 = tested on: PC-3
MCF7 = tested on: MCF7
DU-145 = tested on: DU-145
BT-549 = tested on: BT-549
T47D = tested on: T47D
SR = tested on: SR
NCI/ADR-RES = tested on: NCI/ADR-RES

With `CCCCCCCCCCCCCC(=O)OC1C(CO)OC(=O)C1O` (stereo not given) the GI50 (KM-20L2) was > 100 µM (inactive), the GI50 (EKVX) was > 100 µM (inactive) and the GI50 (HL-60) was 34.3 µM (inactive). For the same compound, the GI50 (SK-MEL-5) was > 100 µM (inactive), the GI50 (SNB-78) was > 100 µM (inactive) and the GI50 (HCT-15) was over 100 µM. For the same compound, the GI50 (OVCAR-8) was > 100 µM (inactive), the GI50 (SF-539) was > 100 µM (inactive) and the GI50 (A549) was > 100 µM (inactive). The GI50 (COLO 205) was > 100 µM (inactive), the GI50 (IGROV-1) was > 100 µM (inactive) and the GI50 (TK-10) was > 100 µM (inactive). The GI50 (HCC 2998) was > 100 µM (inactive), the GI50 (DMS-114) was > 100 µM (inactive) and the GI50 (K562) was 34.7 µM (inactive). The GI50 (MOLT-4) was > 100 µM (inactive), the GI50 (LXFL 529) was > 100 µM (inactive) and the GI50 (UO-31) was 51.8 µM (inactive). For the same compound, the GI50 (UACC-257) was > 100 µM (inactive), the GI50 (UACC-62) was > 100 µM (inactive) and the GI50 (DMS-273) was > 100 µM (inactive). The GI50 (SF-295) was 58.3 µM (inactive), the GI50 (SF-268) was > 100 µM (inactive) and the GI50 (HT-29) was > 100 µM (inactive). The GI50 (SK-MEL-2) was > 100 µM (inactive), the GI50 (NCI-H460) was > 100 µM (inactive) and the GI50 (HCT-116) was > 100 µM (inactive). The GI50 (HOP-18) was > 100 µM (inactive), the GI50 (DLD-1) was > 100 µM (inactive) and the GI50 (SN12C) was > 100 µM (inactive). The GI50 (OVCAR-4) was > 100 µM (inactive), the GI50 (SW-620) was > 100 µM (inactive) and the GI50 (KM12) was > 100 µM (inactive). For the same compound, the GI50 (RPMI-8226) was > 100 µM (inactive), the GI50 (CAKI-1) was > 100 µM (inactive) and the GI50 (786-0) was > 100 µM (inactive). For the same compound, the GI50 (OVCAR-5) was > 100 µM (inactive), the GI50 (M14) was > 100 µM (inactive) and the GI50 (M19-MEL) was > 100 µM (inactive). The GI50 (NCI-H23) was > 100 µM (inactive), the GI50 (OVCAR-3) was > 100 µM (inactive) and the GI50 (LOX IMVI) was > 100 µM (inactive). For the same compound, the GI50 (HOP-62) was > 100 µM (inactive), the GI50 (CCRF-CEM) was 89.9 µM (inactive) and the GI50 (XF498) was > 100 µM (inactive). The GI50 (Malme-3M) was > 100 µM (inactive), the GI50 (RXF 393) was > 100 µM (inactive) and the GI50 (A498) was > 100 µM (inactive). The GI50 (SK-OV-3) was > 100 µM (inactive), the GI50 (SNB-75) was > 100 µM (inactive) and the GI50 (SNB-19) was 71.4 µM (inactive). For the same compound, the GI50 (HOP-92) was 26.7 µM (inactive), the GI50 (ACHN) was > 100 µM (inactive) and the GI50 (U-251) was 82.8 µM (inactive).

In the case of `COC1OC2COC(C)(C)OC2C(OC(C)=O)C1NC(=O)N(CCCl)N=O` (stereo not given), the GI50 (KM-20L2) was > 100 µM (inactive), the GI50 (EKVX) was > 100 µM (inactive) and the GI50 (HL-60) was 11.2 µM (inactive). The GI50 (SK-MEL-5) was > 100 µM (inactive), the GI50 (SNB-78) was > 100 µM (inactive) and the GI50 (HCT-15) was over 100 µM. For the same compound, the GI50 (OVCAR-8) was > 100 µM (inactive), the GI50 (SF-539) was 21.4 µM (inactive) and the GI50 (A549) was 83 µM (inactive). The GI50 (COLO 205) was > 100 µM (inactive), the GI50 (IGROV-1) was > 100 µM (inactive) and the GI50 (TK-10) was > 100 µM (inactive). The GI50 (NCI-H522) was 11.7 µM (inactive), the GI50 (HCC 2998) was > 100 µM (inactive) and the GI50 (DMS-114) was > 100 µM (inactive). The GI50 (K562) was 54.8 µM (inactive), the GI50 (MOLT-4) was 59.6 µM (inactive) and the GI50 (LXFL 529) was > 100 µM (inactive). For the same compound, the GI50 (UACC-257) was > 100 µM (inactive), the GI50 (UACC-62) was 19.3 µM (inactive) and the GI50 (DMS-273) was > 100 µM (inactive). The GI50 (SF-295) was 28.8 µM (inactive), the GI50 (SF-268) was 8.65 µM (inactive) and the GI50 (HT-29) was > 100 µM (inactive). The GI50 (SK-MEL-2) was > 100 µM (inactive), the GI50 (NCI-H460) was 46.7 µM (inactive) and the GI50 (HCT-116) was > 100 µM (inactive). The GI50 (HOP-18) was > 100 µM (inactive), the GI50 (DLD-1) was > 100 µM (inactive) and the GI50 (SN12C) was > 100 µM (inactive). The GI50 (OVCAR-4) was > 100 µM (inactive), the GI50 (SW-620) was > 100 µM (inactive) and the GI50 (KM12) was > 100 µM (inactive). For the same compound, the GI50 (CAKI-1) was > 100 µM (inactive), the GI50 (786-0) was 59.4 µM (inactive) and the GI50 (SK-MEL-28) was > 100 µM (inactive). The GI50 (OVCAR-5) was > 100 µM (inactive), the GI50 (M14) was > 100 µM (inactive) and the GI50 (M19-MEL) was > 100 µM (inactive). For the same compound, the GI50 (NCI-H23) was > 100 µM (inactive), the GI50 (OVCAR-3) was > 100 µM (inactive) and the GI50 (LOX IMVI) was 28.7 µM (inactive). For the same compound, the GI50 (HOP-62) was 48.1 µM (inactive), the GI50 (CCRF-CEM) was 24.3 µM (inactive) and the GI50 (XF498) was > 100 µM (inactive). For the same compound, the GI50 (Malme-3M) was > 100 µM (inactive), the GI50 (RXF 393) was > 100 µM (inactive) and the GI50 (A498) was > 100 µM (inactive). The GI50 (SK-OV-3) was > 100 µM (inactive), the GI50 (NCI-H226) was 47 µM (inactive) and the GI50 (SNB-75) was 29.1 µM (inactive). The GI50 (SNB-19) was 46 µM (inactive), the GI50 (ACHN) was > 100 µM (inactive) and the GI50 (U-251) was 33.7 µM (inactive).

`CNC(=O)ON(C(C)=O)C(=O)NC` [CARACEMIDE] was tested, and the GI50 (KM-20L2) was 104 µM (inactive), the GI50 (MDA-MB-435) was 15.3 µM (inactive) and the GI50 (SK-MEL-5) was 40.3 µM (inactive). The GI50 (SNB-78) was 133 µM (inactive), the GI50 (HCT-15) was 31 µM and the GI50 (OVCAR-8) was 78.3 µM (inactive). For the same compound, the GI50 (SF-539) was 64.4 µM (inactive), the GI50 (A549) was 92.3 µM (inactive) and the GI50 (IGROV-1) was 86.9 µM (inactive). The GI50 (TK-10) was 25.5 µM (inactive), the GI50 (NCI-H522) was 21.5 µM (inactive) and the GI50 (MDA-N) was 15.8 µM (inactive). For the same compound, the GI50 (HCC 2998) was > 100 µM (inactive), the GI50 (PC-3) was 26.5 µM (inactive) and the GI50 (DMS-114) was 31.1 µM (inactive). The GI50 (UO-31) was 54.3 µM (inactive), the GI50 (UACC-257) was 69.5 µM (inactive) and the GI50 (UACC-62) was 47.6 µM (inactive). The GI50 (DMS-273) was 75.2 µM (inactive), the GI50 (SF-295) was 115 µM (inactive) and the GI50 (MCF7) was 51.5 µM (inactive). For the same compound, the GI50 (SF-268) was 75 µM (inactive), the GI50 (SK-MEL-2) was 26 µM (inactive) and the GI50 (DU-145) was 41.3 µM (inactive). For the same compound, the GI50 (NCI-H460) was 78.7 µM (inactive), the GI50 (HCT-116) was 45 µM (inactive) and the GI50 (HOP-18) was 97.7 µM (inactive). For the same compound, the GI50 (DLD-1) was 95.1 µM (inactive), the GI50 (SN12C) was 58.9 µM (inactive) and the GI50 (OVCAR-4) was 63.8 µM (inactive). For the same compound, the GI50 (SW-620) was 52 µM (inactive), the GI50 (KM12) was 59.8 µM (inactive) and the GI50 (CAKI-1) was 55.2 µM (inactive). For the same compound, the GI50 (786-0) was 11 µM (inactive), the GI50 (SK-MEL-28) was 69.5 µM (inactive) and the GI50 (OVCAR-5) was 126 µM (inactive). For the same compound, the GI50 (M14) was 9.55 µM (inactive), the GI50 (M19-MEL) was 112 µM (inactive) and the GI50 (NCI-H23) was 41.8 µM (inactive). The GI50 (OVCAR-3) was 54.1 µM (inactive), the GI50 (LOX IMVI) was 33.7 µM (inactive) and the GI50 (HOP-62) was 140 µM (inactive). The GI50 (XF498) was 41.3 µM (inactive), the GI50 (Malme-3M) was 44.1 µM (inactive) and the GI50 (BT-549) was 19.3 µM (inactive). The GI50 (T47D) was 9.38 µM (inactive), the GI50 (RXF 393) was 34.3 µM (inactive) and the GI50 (A498) was 87.7 µM (inactive). For the same compound, the GI50 (SK-OV-3) was 106 µM (inactive), the GI50 (NCI-H226) was 95.1 µM (inactive) and the GI50 (SNB-75) was 70.3 µM (inactive). The GI50 (SNB-19) was 157 µM (inactive), the GI50 (SR) was 28.1 µM (inactive) and the GI50 (NCI/ADR-RES) was 67.1 µM (inactive). The GI50 (HOP-92) was 17.9 µM (inactive), the GI50 (ACHN) was 18.7 µM (inactive) and the GI50 (U-251) was 82.8 µM (inactive).
